From the supplement of paper PMC10307832

Legend:
Test in all cases: relative viability (nuclei count vs DMSO), 5 days (fraction); higher = more cells survive
[1] = compound: C1CNCCC1C2=CC(=NN2)C3=CC=NC=C3 + CC(=O)c1c(C)c2cnc(Nc3ccc(N4CCNCC4)cn3)nc2n(C2CCCC2)c1=O [Palbociclib] (partner 0.5 µM)
Procedure, shortened: (§1)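 Relative viability was taken as the ratio of nuclei in treated wells to nuclei in vehicle wells. Lung cancer cell lines in 1536-well plates received compounds by pin tool one day after seeding, either one drug alone or a fixed anchor-drug dose plus five library-drug doses (not always all listed) in √10 steps. Nuclei were counted on 4× images after 5 days of treatment, and values are medians of duplicate plates.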

[2] = compound: C[C@@H](N)c1ccc(C(=O)Nc2ccnc3[nH]ccc23)cc1 + CC(C)C[C@H](NC(=O)[C@H](Cc1ccccc1)NC(=O)c1cnccn1)B(O)O [Bortezomib] (partner 0.002 µM)
Procedure, shortened: as §1

[3] = compound: C[C@@H](N)c1ccc(C(=O)Nc2ccnc3[nH]ccc23)cc1 + COc1cc2c(Oc3ccc(NC(=O)C4(C(=O)Nc5ccc(F)cc5)CC4)cc3F)ccnc2cc1OCCCN1CCOCC1 [Foretinib] (partner 0.25 µM)
Procedure, shortened: as §1

[4] = compound: C[C@@H](N)c1ccc(C(=O)Nc2ccnc3[nH]ccc23)cc1 + CS(=O)(=O)CCNCc1ccc(-c2ccc3ncnc(Nc4ccc(OCc5cccc(F)c5)c(Cl)c4)c3c2)o1 [Lapatinib] (partner 2 µM)
Procedure, shortened: as §1

Row | Cell Line | relative viability ([1]; first compound 0.08 µM) | relative viability ([1]; first compound 0.8 µM) | relative viability ([1]; first compound 2.53 µM) | relative viability ([1]; first compound 8 µM) | relative viability ([2]; first compound 0.04 µM) | relative viability ([2]; first compound 0.1265 µM) | relative viability ([2]; first compound 0.4 µM) | relative viability ([2]; first compound 4 µM) | relative viability ([3]; first compound 0.04 µM) | relative viability ([3]; first compound 0.1265 µM) | relative viability ([3]; first compound 0.4 µM) | relative viability ([3]; first compound 4 µM) | relative viability ([4]; first compound 0.04 µM) | relative viability ([4]; first compound 0.1265 µM) | relative viability ([4]; first compound 0.4 µM) | relative viability ([4]; first compound 4 µM) | relative viability ([2]; first compound 1.265 µM) | relative viability ([3]; first compound 1.265 µM) | relative viability ([4]; first compound 1.265 µM)
1 | HCC-366 | 0.336 | 0.409 | 0.398 | 0.385 | 1.16 | 1.08 | 1.15 | 1.15 | 0.987 | 0.926 | 0.936 | 1.07 | 1 | 1.15 | 1.11 | 1.04 |  |  | 
2 | HCC-827 | 0.498 | 0.437 | 0.534 | 0.499 | 0.97 | 1.03 | 1.1 | 0.972 | 1.1 | 1.13 | 1.09 | 0.945 | 0.233 | 0.203 | 0.168 | 0.196 | 1.05 | 1.11 | 0.246
3 | HOP-62 | 0.34 | 0.489 | 0.463 | 0.468 | 0.983 | 0.62 | 0.675 | 0.922 | 1.09 | 1.05 | 1.03 | 0.982 | 0.929 | 0.784 | 1.02 | 0.982 | 0.49 | 1.16 | 0.512
4 | IA-LM |  |  |  |  | 0.977 | 0.87 | 1.08 | 0.677 | 1.28 | 1.33 | 1.43 | 1.08 | 0.779 | 0.954 | 0.865 | 0.957 | 1.07 | 1.2 | 1.27
5 | LC-2-ad | 0.532 | 0.548 | 0.462 | 0.437 | 1.06 | 1.05 | 1.01 | 0.817 | 0.963 | 0.867 | 0.873 | 0.661 | 0.899 | 0.922 | 1 | 0.661 | 1.03 |  | 0.967
6 | LCLC-97TM1 | 0.206 | 0.295 | 0.251 | 0.194 | 0.827 | 0.619 | 0.764 | 0.375 | 0.928 | 0.976 | 0.99 | 0.94 | 1.53 | 1.45 | 1.65 | 1.36 | 0.603 | 1.06 | 0.83
7 | LCLC-103H | 0.45 | 0.407 | 0.485 | 0.481 | 1.13 | 0.819 | 1.2 | 0.856 | 0.901 | 0.821 | 0.69 | 0.643 |  |  |  |  | 0.915 | 0.77 | 
8 | LK-2 |  | 0.658 | 0.801 | 0.735 |  |  |  |  | 1.32 |  | 1.49 | 1.46 | 1.06 | 0.693 | 0.975 | 0.733 |  |  | 0.814
9 | NCI-H358 | 0.14 | 0.126 | 0.143 | 0.136 |  |  |  |  | 0.675 | 0.688 | 0.651 | 0.566 | 0.482 | 0.363 | 0.435 | 0.366 |  | 0.662 | 0.465
10 | NCI-H441 | 0.227 | 0.222 | 0.251 | 0.22 | 0.599 | 0.472 | 0.693 | 0.449 | 0.988 | 1.05 | 1.02 | 0.843 |  |  |  |  | 0.57 |  | 
11 | NCI-H522 | 0.949 | 1.1 | 0.945 | 1.02 |  |  |  |  |  |  |  |  |  |  |  |  |  |  | 
12 | NCI-H596 |  |  |  |  | 1.05 | 0.856 | 1.14 | 1.26 | 1.07 | 0.82 | 0.772 | 0.761 | 1.29 | 1.08 | 1.03 | 1.07 | 1.23 |  | 0.955
13 | NCI-H1299 |  |  |  |  | 1.02 | 0.998 | 0.958 | 0.827 | 1.09 | 1.07 | 0.985 | 0.886 | 0.908 | 0.93 | 0.91 | 0.737 | 0.938 | 0.951 | 0.837
14 | NCI-H1395 | 0.652 | 0.587 | 0.644 | 0.613 |  |  |  |  | 1.07 | 1.14 | 1.06 | 0.909 | 0.935 | 1.2 | 0.954 | 0.941 |  | 0.995 | 
15 | NCI-H1563 |  |  |  |  | 0.776 | 0.798 | 0.777 | 0.897 | 0.974 | 0.986 | 0.876 | 0.914 | 0.805 | 0.945 | 0.854 | 1.05 | 0.699 | 0.923 | 0.446
16 | NCI-H1623 |  |  |  |  |  |  |  |  | 0.969 | 0.859 | 0.992 | 1.07 |  |  |  |  |  | 0.655 | 
17 | NCI-H1648 | 0.266 | 0.352 |  | 0.243 |  |  |  |  |  |  |  |  |  |  |  |  |  |  | 
18 | NCI-H1703 |  |  |  |  | 0.376 | 0.281 | 0.256 | 0.236 | 0.409 | 0.274 | 0.333 | 0.324 | 1.24 | 0.982 | 0.85 | 0.541 |  |  | 0.847
19 | NCI-H1792 | 0.636 | 0.702 | 0.718 | 0.588 | 0.955 | 0.983 | 1.02 | 0.797 |  |  |  |  | 0.923 | 0.922 | 0.966 | 0.783 | 1.03 |  | 0.607
20 | NCI-H1793 | 0.296 |  | 0.329 | 0.364 |  |  |  |  | 0.692 | 0.829 | 0.946 | 0.83 | 0.828 | 0.564 | 0.907 | 0.888 |  |  | 
21 | NCI-H1944 | 0.267 | 0.326 | 0.353 | 0.359 |  |  |  |  | 0.98 | 0.975 | 0.985 | 0.557 | 0.759 | 0.841 | 0.769 | 0.699 |  | 0.822 | 
22 | NCI-H2170 | 0.36 | 0.454 | 0.407 | 0.4 |  |  |  |  | 1.02 | 1 | 0.936 | 0.937 | 0.28 | 0.273 | 0.302 | 0.26 |  | 0.922 | 0.323
23 | NCI-H2342 | 0.486 | 0.545 | 0.587 | 0.556 |  |  |  |  | 1.09 | 1.22 | 1.01 | 0.933 |  |  |  |  |  | 1.21 | 
24 | SK-MES-1 | 0.308 | 0.316 | 0.37 | 0.353 |  |  |  |  | 0.849 | 1.07 | 0.847 | 0.78 | 0.518 | 0.459 | 0.428 | 0.444 |  | 0.785 | 0.423
25 | SW 900 | 0.551 |  | 0.584 | 0.561 |  |  |  |  | 1.1 | 0.972 | 0.867 | 0.762 |  |  |  |  |  | 0.86 | 
